Laboratory results: patent publication US12478090B2, “Aerosolizable formulation” (NICOVENTURES TRADING LIMITED, priority 2018, dated 2025)
Entries after “also recorded” stand apart in the source; their conditions may differ.

Tests used:
[1] = compared to base cyclodextrins such as β-cyclodextrin; cited from earlier work
[2] = Diffusion-Ordered NMR Spectroscopy (DOSY): diffusion coefficient and residence time within cyclodextrin; format: physicochemical; settings: for residency time within 2-hydroxy-propyl-β-cyclodextrin: inferred from DOSY NMR diffusion, Formulations 1 and 2 and spiked ratios 1:4:1 / 1:4:1:1
Procedure: The interaction between cyclodextrin and menthol and cyclodextrin and nicotine (unprotonated and monoprotonated) was assessed using NMR spectroscopy. The study was conducted on formulations containing
Formulation 1-90.0% (w/w) water, 0.9% (w/w) 1-menthol, 9% (w/w) 2-hydroxy-propyl-β-cyclodextrin, and 0.1% (w/w) nicotine.
Formulation 2-89.9% (w/w) water, 0.9% (w/w) 1-menthol, 9% (w/w) 2-hydroxy-propyl-β-cyclodextrin, 0.1% (w/w) nicotine and 0.1% (w/w) citric acid.
During the NMR studies the assessment of the diffusion coefficient and subsequent residence times of monoprotonated nicotine, unprotonated nicotine, menthol within 2-hydroxy-propyl-β-cyclodextrin. The diffusion coefficient and subsequent residence times were studied as they are understood to provide a qualitative assessment of the degree of interaction of the compound with the complexing agent with each of the components studied. It is understood that encapsulation is not a static state but a dynamic one in which materials are encapsulated (e.g. complexed or bound to an encapsulating agent) for a period of time before release after which they may be subsequently encapsulated. Therefore, decreased residence time indicates decreased interaction with the complexing agent.
Diffusion-Ordered NMR Spectroscopy (DOSY) experiments were selected as suitable for assessment of diffusion times of nicotine and menthol solutions of individual constituents, in the formulation describe above and formulations with spike components to vary the ratios of constituents (nicotine: 2-hydroxy-propyl-β-cyclodextrin:menthol=1:4:1 and nicotine: 2-hydroxy-propyl-β-cyclodextrin:menthol:citric acid=1:4:1:1 molar ratios).

[3] = nicotinium citrate gel added in place of nicotine; no heating or filtration steps

In the case of 2-hydroxy-propyl-β-cyclodextrin, the solubility in water [1] is given as “increased solubility in water”.

In the case of CC1CCC(C(C)C)C(O)C1 (stereo not drawn) [menthol], the “residency time within 2-hydroxy-propyl-β-cyclodextrin” value [2] is reported as “higher than that of nicotine in both its monoprotonated and unprotonated form; also recorded: mono-protonated nicotine<unprotonated nicotine<menthol”.

With CN1CCC[C@H]1c1cccnc1 [monoprotonated nicotine] the diffusion coefficient ([2]; DOSY NMR, aqueous formulation with menthol and 2-hydroxy-propyl-β-cyclodextrin, with vs without citric acid) was “faster diffusion coefficient compared to the nicotine without citric acid” and the “residency time within 2-hydroxy-propyl-β-cyclodextrin” value ([2]; listed as mono-protonated nicotine) was “mono-protonated nicotine<unprotonated nicotine<menthol”.

For CN1CCCC1c1cccnc1.O=C(O)CC(O)(CC(=O)O)C(=O)O [nicotinium citrate], the “visual precipitate in formulation” value [3] was “lack of any visual precipitate”.

With CN1CCC[C@H]1c1cccnc1 [unprotonated nicotine] the “residency time within 2-hydroxy-propyl-β-cyclodextrin” value [2] was “higher residence within 2-hydroxy-propyl-β-cyclodextrin than mono-protonated nicotine; also recorded: mono-protonated nicotine<unprotonated nicotine<menthol”.
